Results as given in patent US20040266795A1 (priority 2003, published 2004).
Like-named read-outs stand apart in the source and are kept apart here.

Assays:
[1] = Stability studies of the prepared FMC (storage, HPLC); type: physicochemical
Procedure: The purity of famciclovir was analyzed by HPLC under the following conditions: […]

[2] = cited from earlier work
[3] = below 85% relative humidity; cited from earlier work
[4] = 1 month, 25° C., 75% relative humidity
[5] = 1 month, 40° C., 75% relative humidity
[6] = 1 month, 55° C., 75% relative humidity
[7] = 2 month, 25° C., 75% relative humidity
[8] = 2 month, 40° C., 75% relative humidity
[9] = 2 month, 55° C., 75% relative humidity
[10] = 3 months, 25° C., 75% relative humidity
[11] = 3 months, 40° C., 75% relative humidity
[12] = 3 months, 55° C., 75% relative humidity
[13] = 5 months, 25° C., 75% relative humidity
[14] = 6 months, 25° C., 75% relative humidity
[15] = 6 months, 40° C., 75% relative humidity
[16] = 6 months, 55° C., 75% relative humidity

## 2-[2-(2-amino-9H-purin-9-yl)ethyl]-1,3-propane diacetate [famciclovir]
[1]; [4]
  Any, %: 0.00%
  Total, %: 0.00%
[1]; [5]
  Any, %: 0.00%
  Total, %: 0.00%
[1]; [6]
  Any, %: 0.00%
  Total, %: 0.00%
[1]; [7]
  Any, %: 0.00%
  Total, %: 0.00%
[1]; [8]
  Any, %: 0.06%
  Appear.: White
  MH-FMC RRT 0.51 (%): 0.06%
  RRT 0.80 (%): <0.01%
  RRT 0.87 (%): <0.01%
  RRT 0.89 (%): 0.01%
  RRT 1.10 (%): <0.01%
  RRT 1.27 (%): <0.01%
  RRT 1.35 (%): <0.01%
  RRT 1.74 (%): <0.01%
  Total, %: 0.07%
[1]; [9]
  Any, %: 0.07%
  Appear.: White
  MH-FMC RRT 0.51 (%): 0.07%
  RRT 0.80 (%): <0.01%
  RRT 0.87 (%): <0.01%
  RRT 0.89 (%): 0.01%
  RRT 1.10 (%): <0.01%
  RRT 1.27 (%): <0.01%
  RRT 1.35 (%): <0.01%
  RRT 1.74 (%): <0.01%
  Total, %: 0.08%
[1]; [10]
  Any, %: 0.00%
  Total, %: 0.00%
[1]; [11]
  Any, %: 0.06%
  Appear.: White
  MH-FMC RRT 0.51 (%): 0.06%
  RRT 0.80 (%): <0.01%
  RRT 0.87 (%): <0.01%
  RRT 0.89 (%): 0.01%
  RRT 1.10 (%): <0.01%
  RRT 1.27 (%): <0.01%
  RRT 1.35 (%): <0.01%
  RRT 1.74 (%): <0.01%
  Total, %: 0.07%
[1]; [12]
  Any, %: 0.06%
  Appear.: White
  MH-FMC RRT 0.51 (%): 0.06%
  RRT 0.80 (%): <0.01%
  RRT 0.87 (%): <0.01%
  RRT 0.89 (%): 0.01%
  RRT 1.10 (%): <0.01%
  RRT 1.27 (%): <0.01%
  RRT 1.35 (%): <0.01%
  RRT 1.74 (%): <0.01%
  Total, %: 0.07%
[1]; [13]
  Any, %: 0.06%
  Appear.: White
  MH-FMC RRT 0.51 (%): 0.06%
  RRT 0.80 (%): 0.01%
  RRT 0.87 (%): 0.02%
  RRT 0.89 (%): 0.01%
  RRT 1.10 (%): 0.01%
  RRT 1.27 (%): 0.01%
  RRT 1.35 (%): 0.01%
  RRT 1.74 (%): 0.01%
  Total, %: 0.14%
[1]; [14]
  Any, %: 0.06%
  MH-FMC RRT 0.51 (%): 0.06%
  RRT 0.80 (%): 0.01%
  RRT 0.87 (%): 0.01%
  RRT 1.27 (%): 0.01%
  Total, %: 0.09%
[1]; [15]
  Any, %: 0.06%
  MH-FMC RRT 0.51 (%): 0.06%
  RRT 0.80 (%): 0.01%
  RRT 0.87 (%): 0.01%
  RRT 1.27 (%): 0.01%
  Total, %: 0.09%
[1]; [16]
  Any, %: 0.06%
  MH-FMC RRT 0.51 (%): 0.06%
  RRT 0.80 (%): 0.01%
  RRT 0.87 (%): 0.01%
  RRT 1.27 (%): 0.01%
  Total, %: 0.09%
[1]; at least 6 months at 25° C., 40° C. or 55° C. and 75% relative humidity
  monohydroxy impurity content upon storage: does not increase
[1]; start
  Any, %: 0.00%
  Total, %: 0.00%
[2]; octanol/phosphate buffer (pH 7.4)
  partition coefficient P: 2.08
[2]; octanol/water (pH 4.8)
  partition coefficient P: 1.09
[3]
  hygroscopicity: not hydroscopic
